Reference: US8846949B2, “Pyrrolopyrazoles as N-type calcium channel blockers” (Janssen Pharmaceutica NV, priority 2012, dated 2014)
pIC50: −log10 of the molar value.

Target: T1, N-type calcium channel α1B (Cav2.2), β3 and α2δ subunits (Homo sapiens, UniProt Q00975)
T1 construct: expressed in transfected cells
Test: Functional assay, antagonism of N-type calcium channel (FDSS calcium mobilization response to KCl depolarization)
Assay type: cell-based
Settings: for pIC50: HEK stable cell line, 50 mM KCl depolarization, six-point concentration-response; for inhibition at 0.33 µM: 0.33 μM compound, FDSS, 50 mM KCl
Experimental: A stable cell line (HEK parent) co-expressing the α1B (Cav2.2), β3 and α2δ subunits of the N-type calcium channel subunits was used. These cells were routinely grown as monolayers in low glucose-containing Dulbecco's Modified Eagle Medium supplemented with 10% FBS, 2 mM L-glutamine, 100 I.U./mL penicillin, 100 μg/mL streptomycin, 400 μg/mL G418 and 200 μg/mL Zeocin (split ratio=1:5). Cells were maintained in 5% CO2 at 37° C. Compounds of Formula (I) were prepared as 10 mM stocks in DMSO from neat compound, if available. Otherwise, the 5 or 10 mM DMSO stock solutions provided in-house were used.
Calcium mobilization responses to KCl depolarization were evaluated by measuring the intensity of calcium-mediated fluorescent signal in the presence of BD Calcium Assay Dye (BD Biosciences, Franklin Lakes, N.J., U.S.A.), utilizing a Functional Drug Screening System (FDSS) by Hamamatsu Corporation (Bridgewater, N.J. U.S.A.).
Twenty-four hr prior to assay, cells were seeded in clear-base poly-D-lysine-coated 384-well plates (BD Biosciences) at a density of 5,000 cells per well in culture medium and grown overnight in 5% CO2 at 37° C. On the day of assay, growth media were removed, and cells were loaded with BD calcium assay dye (BD Biosciences) for 35 min at 37° C. under 5% CO2 and then for 25 min at room temp. Utilizing the FDSS, cells were exposed to representative compounds of Formula (I) at varying concentrations, and intracellular calcium was measured for 5 min prior to the addition of 50 mM KCl for an additional 3 min of measurement.
IC50 values for representative compounds of Formula (I) were determined from six-point concentration-response experiments and represent the concentration of said compound required to inhibit 50% of the maximal response. Maximal fluorescence intensity (FI) achieved upon addition of 50 mM KCl was exported from the FDSS software and further analyzed using GraphPad Prism 3.02 (Graph Pad Software Inc., San Diego, Calif., U.S.A.). Data were normalized to the maximum average counts from quadruplicate wells for each condition in the presence of 50 mM KCl and to the minimum average counts in the presence of buffer. Theoretical curves were generated using nonlinear regression curve-fitting analysis of either sigmoidal concentration-response or sigmoidal concentration-response (variable slope), and the IC50 values with the best-fit curve determined by GraphPad Prism were reported.

T1 sequence (Q00975 whole entry): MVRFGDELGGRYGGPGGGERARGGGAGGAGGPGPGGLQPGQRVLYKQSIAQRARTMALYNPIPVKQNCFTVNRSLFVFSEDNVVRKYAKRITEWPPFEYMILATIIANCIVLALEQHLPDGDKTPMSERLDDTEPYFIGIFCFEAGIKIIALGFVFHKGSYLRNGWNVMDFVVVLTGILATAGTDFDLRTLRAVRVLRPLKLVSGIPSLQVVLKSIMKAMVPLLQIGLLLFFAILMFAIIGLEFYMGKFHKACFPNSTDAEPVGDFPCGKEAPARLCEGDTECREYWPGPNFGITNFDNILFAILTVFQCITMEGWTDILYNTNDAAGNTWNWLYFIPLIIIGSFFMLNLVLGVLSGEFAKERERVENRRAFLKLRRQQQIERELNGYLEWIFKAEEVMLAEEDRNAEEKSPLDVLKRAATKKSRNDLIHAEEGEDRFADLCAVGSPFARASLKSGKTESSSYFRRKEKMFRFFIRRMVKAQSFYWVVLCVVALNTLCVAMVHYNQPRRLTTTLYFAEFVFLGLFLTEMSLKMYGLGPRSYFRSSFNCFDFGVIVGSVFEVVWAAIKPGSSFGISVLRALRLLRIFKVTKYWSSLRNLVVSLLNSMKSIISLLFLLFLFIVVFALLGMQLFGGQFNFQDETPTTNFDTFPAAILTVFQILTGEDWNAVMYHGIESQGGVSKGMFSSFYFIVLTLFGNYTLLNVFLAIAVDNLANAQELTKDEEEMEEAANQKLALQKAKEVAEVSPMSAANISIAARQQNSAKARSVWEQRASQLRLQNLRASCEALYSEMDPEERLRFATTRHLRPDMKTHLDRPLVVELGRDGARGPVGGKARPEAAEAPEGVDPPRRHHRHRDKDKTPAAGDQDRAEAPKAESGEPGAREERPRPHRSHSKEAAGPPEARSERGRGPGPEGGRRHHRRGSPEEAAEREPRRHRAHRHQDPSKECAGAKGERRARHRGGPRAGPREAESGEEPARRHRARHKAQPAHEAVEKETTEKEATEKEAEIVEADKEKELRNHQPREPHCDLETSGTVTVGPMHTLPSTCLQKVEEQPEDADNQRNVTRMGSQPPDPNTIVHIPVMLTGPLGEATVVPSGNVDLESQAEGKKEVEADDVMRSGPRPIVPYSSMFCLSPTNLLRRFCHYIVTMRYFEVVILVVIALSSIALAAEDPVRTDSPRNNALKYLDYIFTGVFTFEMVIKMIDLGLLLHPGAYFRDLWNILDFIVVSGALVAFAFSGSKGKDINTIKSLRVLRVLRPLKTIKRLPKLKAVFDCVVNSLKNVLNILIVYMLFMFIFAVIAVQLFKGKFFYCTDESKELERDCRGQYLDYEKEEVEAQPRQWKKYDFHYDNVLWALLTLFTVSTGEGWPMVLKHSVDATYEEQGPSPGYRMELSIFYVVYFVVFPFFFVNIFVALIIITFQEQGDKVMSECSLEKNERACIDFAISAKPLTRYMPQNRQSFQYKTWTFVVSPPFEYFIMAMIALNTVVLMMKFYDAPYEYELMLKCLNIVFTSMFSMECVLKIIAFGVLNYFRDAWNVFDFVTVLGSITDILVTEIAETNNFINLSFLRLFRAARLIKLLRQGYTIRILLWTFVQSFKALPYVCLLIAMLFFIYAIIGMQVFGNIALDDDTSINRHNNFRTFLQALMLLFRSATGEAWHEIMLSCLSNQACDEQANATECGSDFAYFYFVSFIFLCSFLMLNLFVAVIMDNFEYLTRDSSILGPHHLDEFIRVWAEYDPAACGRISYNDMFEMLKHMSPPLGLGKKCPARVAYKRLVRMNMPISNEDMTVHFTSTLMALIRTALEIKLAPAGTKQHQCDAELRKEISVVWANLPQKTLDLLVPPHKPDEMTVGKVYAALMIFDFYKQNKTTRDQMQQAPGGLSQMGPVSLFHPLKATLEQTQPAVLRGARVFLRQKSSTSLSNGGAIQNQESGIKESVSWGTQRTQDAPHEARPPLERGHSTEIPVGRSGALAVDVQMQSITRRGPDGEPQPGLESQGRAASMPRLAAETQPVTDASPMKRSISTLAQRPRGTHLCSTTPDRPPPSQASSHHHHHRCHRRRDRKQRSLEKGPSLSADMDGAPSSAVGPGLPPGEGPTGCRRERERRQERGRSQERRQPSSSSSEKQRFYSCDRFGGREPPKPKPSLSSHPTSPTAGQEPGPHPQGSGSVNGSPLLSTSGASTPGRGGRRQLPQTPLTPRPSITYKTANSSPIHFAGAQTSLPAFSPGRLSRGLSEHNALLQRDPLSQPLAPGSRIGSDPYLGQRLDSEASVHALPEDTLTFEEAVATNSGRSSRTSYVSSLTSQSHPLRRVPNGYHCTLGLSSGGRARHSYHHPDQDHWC
T1 sequence (P54284 whole entry partner): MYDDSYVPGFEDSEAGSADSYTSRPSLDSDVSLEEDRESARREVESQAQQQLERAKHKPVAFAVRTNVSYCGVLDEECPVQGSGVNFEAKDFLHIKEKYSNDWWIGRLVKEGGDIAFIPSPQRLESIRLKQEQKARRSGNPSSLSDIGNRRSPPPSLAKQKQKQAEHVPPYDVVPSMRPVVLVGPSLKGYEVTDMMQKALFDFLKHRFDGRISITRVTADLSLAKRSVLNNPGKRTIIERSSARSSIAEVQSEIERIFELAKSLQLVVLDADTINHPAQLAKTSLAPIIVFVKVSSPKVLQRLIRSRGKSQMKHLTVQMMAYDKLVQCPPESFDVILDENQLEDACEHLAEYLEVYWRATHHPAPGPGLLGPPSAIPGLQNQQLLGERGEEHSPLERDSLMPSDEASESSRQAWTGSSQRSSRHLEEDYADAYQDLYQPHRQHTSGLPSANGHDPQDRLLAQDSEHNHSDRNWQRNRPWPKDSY
T1 sequence (P54289 25-956 partner limits assumed): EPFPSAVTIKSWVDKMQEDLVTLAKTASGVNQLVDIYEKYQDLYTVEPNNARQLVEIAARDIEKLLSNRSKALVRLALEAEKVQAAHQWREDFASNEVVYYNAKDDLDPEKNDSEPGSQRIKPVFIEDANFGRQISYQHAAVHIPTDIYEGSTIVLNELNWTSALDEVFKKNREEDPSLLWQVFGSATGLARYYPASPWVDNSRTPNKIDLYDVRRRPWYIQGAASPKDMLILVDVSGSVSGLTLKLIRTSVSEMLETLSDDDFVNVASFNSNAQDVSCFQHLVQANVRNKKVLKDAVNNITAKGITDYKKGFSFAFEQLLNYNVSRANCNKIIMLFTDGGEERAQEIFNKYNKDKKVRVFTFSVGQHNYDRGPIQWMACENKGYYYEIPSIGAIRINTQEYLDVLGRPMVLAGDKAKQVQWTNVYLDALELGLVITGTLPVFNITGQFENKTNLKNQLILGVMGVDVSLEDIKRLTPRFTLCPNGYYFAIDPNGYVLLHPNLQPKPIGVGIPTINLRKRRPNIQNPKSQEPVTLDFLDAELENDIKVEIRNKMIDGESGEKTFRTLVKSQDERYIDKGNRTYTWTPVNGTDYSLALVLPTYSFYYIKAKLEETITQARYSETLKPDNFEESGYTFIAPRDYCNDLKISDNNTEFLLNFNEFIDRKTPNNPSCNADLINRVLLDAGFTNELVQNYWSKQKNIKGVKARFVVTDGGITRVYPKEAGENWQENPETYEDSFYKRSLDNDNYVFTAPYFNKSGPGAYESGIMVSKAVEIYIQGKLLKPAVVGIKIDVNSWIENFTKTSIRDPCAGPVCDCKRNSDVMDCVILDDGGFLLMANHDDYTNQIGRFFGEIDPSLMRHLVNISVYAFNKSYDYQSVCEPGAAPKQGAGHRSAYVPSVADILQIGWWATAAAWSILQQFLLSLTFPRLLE
T1 sequence (P54289 957-1103 partner limits assumed): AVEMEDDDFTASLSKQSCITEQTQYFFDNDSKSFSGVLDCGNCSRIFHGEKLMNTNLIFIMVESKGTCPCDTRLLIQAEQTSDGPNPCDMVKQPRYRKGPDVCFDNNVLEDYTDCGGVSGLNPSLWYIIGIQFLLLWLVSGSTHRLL

SMILES | pIC50 | inhibition at 0.33 µM
CC(C)Oc1ccccc1-n1nc2c(c1-c1ccc(Cl)cc1)CN(S(=O)(=O)N(C)C)C2 [Cpd 63, 3-(4-Chlorophenyl)-N,N-dimethyl-2-[2-(1-methylethoxy)phenyl]-2,6-dihydropyrrolo[3,4-c]pyrazole-5(4H)-sulfonamide] | 8.52 | 
COc1ccc(-n2nc3c(c2-c2ccc(Cl)cc2)CN(S(C)(=O)=O)C3)c(C)c1 [Cpd 66, 3-(4-Chlorophenyl)-2-(4-methoxy-2-methylphenyl)-5-(methylsulfonyl)-2,4,5,6-tetrahydropyrrolo[3,4-c]pyrazole] |  | 35%
COc1ccc(-n2nc3c(c2-c2ccc(Cl)cc2)CN(S(=O)(=O)C(C)C)C3)c(C)c1 [Cpd 67, 3-(4-Chlorophenyl)-2-(4-methoxy-2-methylphenyl)-5-[(1-methylethyl)sulfonyl]-2,4,5,6-tetrahydropyrrolo[3,4-c]pyrazole] | 6.72 | 61%
COc1ccc(-n2nc3c(c2-c2ccc(Cl)cc2)CN(S(=O)(=O)C2CCCCC2)C3)c(C)c1 [Cpd 68, 3-(4-Chlorophenyl)-5-(cyclohexylsulfonyl)-2-(4-methoxy-2-methylphenyl)-2,4,5,6-tetrahydropyrrolo[3,4-c]pyrazole] | 6.89 | 71%
COc1ccc(-n2nc3c(c2-c2ccc(Cl)cc2)CN(S(=O)(=O)N(C)C)C3)c(C)c1 [Cpd 69, 3-(4-Chlorophenyl)-2-(4-methoxy-2-methylphenyl)-N,N-dimethyl-2,6-dihydropyrrolo[3,4-c]pyrazole-5(4H)-sulfonamide] | 6.89 | 69%
COc1cc(F)ccc1-n1nc2c(c1-c1ccc(Cl)cc1)CN(S(C)(=O)=O)C2 [Cpd 70, 3-(4-Chlorophenyl)-2-(4-fluoro-2-methoxyphenyl)-5-(methylsulfonyl)-2,4,5,6-tetrahydropyrrolo[3,4-c]pyrazole] | 7.12 | 74%
COc1cc(F)ccc1-n1nc2c(c1-c1ccc(Cl)cc1)CN(S(=O)(=O)C1CCCCC1)C2 [Cpd 72, 3-(4-Chlorophenyl)-5-(cyclohexylsulfonyl)-2-(4-fluoro-2-methoxyphenyl)-2,4,5,6-tetrahydropyrrolo[3,4-c]pyrazole] | 7.02 | 82%
CN(C)S(=O)(=O)N1Cc2nn(-c3ccccc3OC(C)(C)C)c(-c3ccc(Cl)cc3)c2C1 [Cpd 91, 2-(2-tert-Butoxyphenyl)-3-(4-chlorophenyl)-N,N-dimethyl-2,6-dihydropyrrolo[3,4-c]pyrazole-5(4H)-sulfonamide] | 7.20 | 87%

Other lines, results leading:

pIC50 | inhibition at 0.33 µM | SMILES
7.33 | 82% | COc1cc(C)ccc1-n1nc2c(c1-c1ccc(Cl)cc1)CN(S(C)(=O)=O)C2 [Cpd 74, 3-(4-Chlorophenyl)-2-(2-methoxy-4-methylphenyl)-5-(methylsulfonyl)-2,4,5,6-tetrahydropyrrolo[3,4-c]pyrazole]
7.49 | 93% | COc1cc(C)ccc1-n1nc2c(c1-c1ccc(Cl)cc1)CN(S(=O)(=O)C(C)C)C2 [Cpd 75, 3-(4-Chlorophenyl)-2-(2-methoxy-4-methylphenyl)-5-[(1-methylethyl)sulfonyl]-2,4,5,6-tetrahydropyrrolo[3,4-c]pyrazole]
7.25 | 82% | COc1cc(C)ccc1-n1nc2c(c1-c1ccc(Cl)cc1)CN(S(=O)(=O)N1CCC(C)CC1)C2 [Cpd 77, 3-(4-Chlorophenyl)-2-(2-methoxy-4-methylphenyl)-5-[(4-methylpiperidin-1-yl)sulfonyl]-2,4,5,6-tetrahydropyrrolo[3,4-c]pyrazole]
6.70 | 62% | COc1ccc(-n2nc3c(c2-c2ccc(Cl)cc2)CN(S(C)(=O)=O)C3)c(F)c1 [Cpd 78, 3-(4-Chlorophenyl)-2-(2-fluoro-4-methoxyphenyl)-5-(methylsulfonyl)-2,4,5,6-tetrahydropyrrolo[3,4-c]pyrazole]
6.74 | 61% | COc1ccc(-n2nc3c(c2-c2ccc(Cl)cc2)CN(S(=O)(=O)C(C)C)C3)c(F)c1 [Cpd 79, 3-(4-Chlorophenyl)-2-(2-fluoro-4-methoxyphenyl)-5-[(1-methylethyl)sulfonyl]-2,4,5,6-tetrahydropyrrolo[3,4-c]pyrazole]
6.85 | 62% | COc1ccc(-n2nc3c(c2-c2ccc(Cl)cc2)CN(S(=O)(=O)N2CCC(C)CC2)C3)c(F)c1 [Cpd 80, 3-(4-Chlorophenyl)-2-(2-fluoro-4-methoxyphenyl)-5-[(4-methylpiperidin-1-yl)sulfonyl]-2,4,5,6-tetrahydropyrrolo[3,4-c]pyrazole]
7.07 | 80% | CN(C)S(=O)(=O)N1Cc2nn(-c3ccccc3OCC(F)(F)F)c(-c3ccc(Cl)cc3)c2C1 [Cpd 90, 3-(4-Chlorophenyl)-N,N-dimethyl-2-[2-(2,2,2-trifluoroethoxy)phenyl]-2,6-dihydropyrrolo[3,4-c]pyrazole-5(4H)-sulfonamide]
7.00 |  | COc1ccccc1-n1nc2c(c1-c1cnc3ccccc3c1)CN(S(=O)(=O)C(C)C)C2 [Cpd 93, 3-{2-(2-Methoxyphenyl)-5-[(1-methylethyl)sulfonyl]-2,4,5,6-tetrahydropyrrolo[3,4-c]pyrazol-3-yl}quinoline]
 | 46% | COc1ccccc1-n1nc2c(c1-c1ccc(C)nc1)CN(S(=O)(=O)C(C)C)C2 [Cpd 94, 2-(2-Methoxyphenyl)-5-[(1-methylethyl)sulfonyl]-3-(6-methylpyridin-3-yl)-2,4,5,6-tetrahydropyrrolo[3,4-c]pyrazole]
6.89 | 79% | COc1ccccc1-n1nc2c(c1-c1ccc(OC(C)C)nc1)CN(S(=O)(=O)C(C)C)C2 [Cpd 96, 2-(2-Methoxyphenyl)-3-[6-(1-methylethoxy)pyridin-3-yl]-5-[(1-methylethyl)sulfonyl]-2,4,5,6-tetrahydropyrrolo[3,4-c]pyrazole]
